In BindingDB's records for doi:10.1007/s00044-011-9593-5 (n/a, 2012) one finds IC50 data, which are given here for 1 molecule.

This experiment has as its target Integrase (Human immunodeficiency virus 1, UniProt Q7ZJM1). Kind of experiment: Inhibition of Human immunodeficiency virus 1 integrase strand transfer activity.

pIC50: −log10 of the molar value.

Integrase, sequence (Q7ZJM1 whole entry): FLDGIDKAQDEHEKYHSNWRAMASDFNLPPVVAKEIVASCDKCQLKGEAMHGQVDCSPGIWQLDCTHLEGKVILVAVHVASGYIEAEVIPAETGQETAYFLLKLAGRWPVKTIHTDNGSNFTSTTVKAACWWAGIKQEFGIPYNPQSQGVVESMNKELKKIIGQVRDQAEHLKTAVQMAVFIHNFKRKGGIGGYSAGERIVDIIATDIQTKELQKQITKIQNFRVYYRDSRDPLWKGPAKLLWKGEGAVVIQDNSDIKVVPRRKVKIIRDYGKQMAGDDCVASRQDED

One may read the pIC50 as −log10 of the IC50, conventionally taken in molar units. Low values mean a large IC50, high ones a small IC50. For `CCN(CC)CCC[C@@H](C)Nc1ccnc2cc(Cl)ccc12` [Aralen], the negative logarithm of the IC50 (pIC50) is 9.60.
